Patent US20230059009A1, “INHIBITORS OF LIN28 AND METHODS OF USE THEREOF” (The Regents of the University of California, priority 2019, published 2023)
pIC50: −log10 of the molar value. Entries after “also recorded” stand apart in the source; their conditions may differ.

What was measured:
[1] = target: T1, LIN28B/pre-let-7a-2 binding (Homo sapiens, UniProt Q6ZN17); assay: FRET assay, EGFP-tagged LIN28B and BHQ-1 labelled pre-let-7a-2; settings: doses 1.25 uM-20 uM; compared with LN1632
T1 construct: made in house; host or cells: stably transduced HEK cells; used as diluted protein lysate, not purified
T1 sequence (Q6ZN17 1-250): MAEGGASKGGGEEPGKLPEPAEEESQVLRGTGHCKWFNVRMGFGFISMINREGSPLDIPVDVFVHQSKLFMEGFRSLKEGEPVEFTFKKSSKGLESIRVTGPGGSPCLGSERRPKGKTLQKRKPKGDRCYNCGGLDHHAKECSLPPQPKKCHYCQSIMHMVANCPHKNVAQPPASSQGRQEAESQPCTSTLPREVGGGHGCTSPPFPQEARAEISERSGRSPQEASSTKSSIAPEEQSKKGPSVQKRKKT
Description: As described herein, compounds of formula (I) and (II) show Lin28/let-7 inhibitory activity in FRET assays in vitro and in LSCs and LSC-like Kasumi-1 cells. FRET assay was performed as previously described (51).
In order to improve binding and inhibitory capacity of a compound to LIN28b, we predicted the binding mode of LN1632 to LIN28B. […] With this model in hand, we synthesized novel compounds with improved binding capacity to Lin28b (JGJ002-JGJ008, FIG. 8). Compounds were screened using a previously described FRET-assay with an EGFP-tagged LIN28B as donor and a BHQ-1 quencher labelled pre-let-7a-2 (pre-let-7a-2-BHQ1) as acceptor (51). Briefly, recombinant LIN28B-EGFP was harvested from stably transduced HEK cells and diluted with binding buffer (300 mM NaCl, 25 mM HEPES pH 7.2, 10 μM ZnCl2, 1% Odyssey Blocking Buffer, 0.05% Tween 20, 0.5 mM TCEP) in order to adjust ideal FRET-quenching signal intensity. Protein lysate and compounds (JGJ001-JGJ008) were pre-incubated in doses ranging from 1.25 uM-20 uM for 20 min in 100 uL diluted protein lysate. Subsequently pre-let-7a-2-BHQ1 was added to the mixture (at 6.25 nM) and EGFP-LIN28B donor emission was measured using a Tecan Spark Plate Reader ([…], excitation at 488 nm, emission read-out at […], 30 flashes/s). […] Increased endogenous let-7 miRNA levels can target a panoply of LCS and cancer stem cell hallmark genes thus inhibiting tumor growth.
To test the structure-activity relationship, 39 LN1632-related analogs (JGJ001-39) were synthesized and their potency and specificity to inhibit LIN28B-RNA binding activity and upregulate mature let-7 miRNA levels was measured. […] The dual luciferase reporter assay was performed as previously described (89).

[2] = tested on: MCF7; assay: Cell viability, CTG, MCF7; type: cell-based; settings: Homo sapiens, MCF7 (Breast)
Description: (§1) To measure cell viability, cell titer glow (CTG, Promega CellTiter-Glo 2.0 Assay) and MTT assays (SigmaAldrich, Cell Proliferation Kit I) were performed. Briefly, cells were serum starved overnight prior to seeding in 96-well plates. Following 24 h incubation, cells were treated with increasing concentrations of JGJ compounds for 96 hr. At assay read-out, CellTiter-Glo reagent was added and luminescence was measured after 10-minutes incubation at room temperature. For the MTT assay, MTT labeling reagent was added and incubated for 4 h. Subsequently, medium was removed and 50 μL DMSO was added to solubilize the crystals, and absorbance was measured at 570 nm. Cell viability was calculated as (Sample-Background)/(Control-Background). Current standard of care drugs, Enzalutamide, Palbociclib and Cetuximab were used as comparative controls.

[3] = tested on: CD34+ AML pt. #13 cells; assay: CFC assay, AML pt #13 CD34+ cells vs healthy CD34+ BM cells; type: cell-based, human; settings: AML pt #13 vs healthy donor CD34+ cells; 80-120 μM
[4] = tested on: SW620; assay: Cell viability, CTG, SW620; type: cell-based; settings: SW620 (Colon)
Description: as §1

[5] = tested on: MYC-driven cancers; assay: Cell viability and cell counting assays in cancer cells; type: cell-based; settings: TNBC, CRPC, lung and colorectal adenocarcinoma cells
Description: To test whether LN1632 and novel analogs thereof affect cancer cell growth, cell viability and cell counting assays in TNBC (FIG. 14B-D), castration resistant prostate cancer cells (CRPC, FIG. 15A-C) and colorectal cancer cells (CRC, FIG. 15A-C) were performed.
as §1

[6] = tested on: LIN28B-expressing Ewing Sarcoma (EwS); settings: recent report (72); cited from earlier work
[7] = Tolerability / MTD in healthy C57BL/6 mice
Description: Next, the tumor suppressive effect of LN1632 in vivo was investigated. The maximum tolerated dose (MTD) was evaluated in healthy female C57Bl/6 mice.

| pIC50 [2] | Structure (SMILES) | Inhibition of LIN28B binding to pre-let-7a (FRET signal) [1] | Colony formation (CFC) [3] | pIC50 [4] | Proliferation and apoptosis of cancer cells [5] | Suppression of Ewing Sarcoma [6] | Weight gain ([7]; 100 mg/kg daily +12 d then every other day +9 d, at +21 d) | Complete blood count (CBC) profile ([7]; 100 mg/kg daily for +12 d then every other day for +9 d, female C57Bl/6 mice) | Tolerability ([7]; 100 mg/kg every other day for 21 d, healthy C57BL/6 mice) | Tolerability (MTD evaluation) ([7]; mouse, in vivo) |
| --- | --- | --- | --- | --- | --- | --- | --- | --- | --- | --- |
| 3.94 | CC(=O)Nc1cccc(-c2ccc3ncc(C)n3n2)c1 [JGJ007, N-(3-(3-Methylimidazo[1,2-b]pyridazin-6-yl)phenyl)acetamide] | greater inhibition of the LIN28B/pre-let-7a2 binding than the original compound LN1632 | – | – | – | – | – | – | – | – |
| – | CC(=O)N(C)c1cccc(-c2ccc3nnc(C)n3n2)c1 [LN1632] | – | affects colony formation of CD34^+ AML pt. #13 cells significantly more than healthy CD34^+BM cells | 3.72 | reduced proliferation and induced apoptosis preferentially in MYC-driven cancers | selectively suppresses LIN28B-expressing Ewing Sarcoma (EwS) but not LIN28B depleted EwS | normal weight gain; also recorded: no significant changes in weight gain | normal complete blood count (CBC) profile, without any leukopenia or thrombocytopenia, only mild anemia | non-toxic, well tolerated | well tolerated |
